Experimental findings from ChEMBL document CHEMBL1201862, “PubChem BioAssay data set” (2004) are described below.

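1) Cells in 96-well plates. 2) Compound, 48 h, 5 concentrations. 3) Linear interpolation between surrounding doses. 4) Unreached endpoint = highest concentration. At the GI50, growth is halved.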 Calls of active or inactive are those of the source. No stated cut-off is given here; in the data, active = GI50 up to about 1.1 µM and inactive = higher.

Test in all cases: inhibition of tumour cell growth, NCI panel, 48 h
The test system of assay [1] is 786-0.
Assay [2] relates to A498.
The test system of assay [3] is CCRF-CEM.
Assay [4] deals with EKVX.
The subject of assay [5] is HCC 2998.
Assay [6] relates to MOLT-4.
The test system of assay [7] is Malme-3M.
The test system of assay [8] is NCI-H460.
The subject of assay [9] is OVCAR-3.
Assay [10] concerns OVCAR-5.
The test system of assay [11] is RXF 393.
For assay [12], the system named is SF-295.
Assay [13] concerns SK-MEL-5.
The test system of assay [14] is SNB-19.
Assay [15] deals with SR.
In assay [16] the test system is SW-620.
Assay [17] relates to UO-31.

Regarding `c1ccc(C2CC(c3ccc4ccccc4c3)=Nc3ccccc3S2)cc1` (stereo not given), the GI50 in assay [1] is 16.6 µM (inactive); in [2], 17.3 µM (inactive); in [3], 26.1 µM (inactive); in [4], 23.2 µM (inactive); in assay [5] it was 11.9 µM (inactive); in assay [6] it was 30.4 µM (inactive). For the same compound, the GI50 in assay [7] is 19.4 µM (inactive); in assay [8] it was 15.7 µM (inactive); in assay [9], 17.3 µM (inactive); in assay [10], 21.8 µM (inactive); in assay [11], 19.1 µM (inactive); in [12], 17.9 µM (inactive). The GI50 in assay [13] was 18.9 µM (inactive); in assay [14], 19.1 µM (inactive); in assay [15], 23.7 µM (inactive); in [16], 18.8 µM (inactive); in [17], 12.5 µM (inactive).

Take `CC(=O)O/C(C)=C\C(=O)O/N=C(\N)c1ccc(C)cc1`: the GI50 in [1] is 52 µM (inactive); in assay [2], 62.7 µM (inactive); in assay [3] it was 17.3 µM (inactive); in [4] it was 92.3 µM (inactive); in assay [5], > 100 µM (inactive); in assay [6], 23.1 µM (inactive). Further, the GI50 in [7] was 25.4 µM (inactive); in assay [8] it was 29.6 µM (inactive); in assay [9] it was 34.7 µM (inactive); in assay [10], > 100 µM (inactive); in [11], 27.4 µM (inactive); in assay [12], 35.2 µM (inactive). The GI50 in assay [13] is 22.3 µM (inactive); in assay [14] it was 43.7 µM (inactive); in assay [15], 20.5 µM (inactive); in assay [16], 39.4 µM (inactive); in assay [17], 61.1 µM (inactive).

Regarding `O=C1CC(C[C@H](O)C2CCCCC2O)CC(=O)N1Cc1ccccc1` (stereo not given in full), the GI50 in [1], in assay [2], in assay [3], in [4], in [5] and in [6] was > 100 µM (inactive) in each case. Besides, the GI50 in [7], in assay [8], in assay [9], in [10], in assay [11] and in assay [12] was > 100 µM (inactive) each time. Besides, the GI50 in assay [13], in assay [14], in [15], in assay [16] and in assay [17] was > 100 µM (inactive) throughout.

Consider `Cc1nn(C(=O)CC(=O)Nc2ccccc2Cl)c(C)c1/N=N/c1ccccc1Cl`, for which the GI50 in assay [1], in assay [2], in [3], in assay [4], in [5] and in assay [6] was > 100 µM (inactive) in each case. Also, the GI50 in assay [7], in assay [8], in assay [9], in assay [10], in [11] and in [12] was > 100 µM (inactive) in each case. In addition, the GI50 in assay [13], in assay [14], in assay [15], in [16] and in [17] was > 100 µM (inactive) each time.

Regarding `c1ccc2c(c1)oc1ccc3nsnc3c12`, the GI50 is > 100 µM (inactive) in assay [1]; 63.4 µM (inactive) in assay [2]; > 100 µM (inactive) in [3]; 31.3 µM (inactive) in assay [4]; > 100 µM (inactive) in [5]; > 100 µM (inactive) in [6]. Moreover, the GI50 in assay [7] was > 100 µM (inactive); in assay [8], > 10 µM (inactive); in assay [9], > 100 µM (inactive); in assay [10] it was > 100 µM (inactive); in assay [11] it was 71 µM (inactive); in assay [12], > 100 µM (inactive). Besides, the GI50 in [13], in assay [14], in [15], in [16] and in assay [17] was > 100 µM (inactive) each time.

`C[N+]1(C)C/C(=C\c2ccccc2)C(=O)/C(=C/c2ccccc2)C1`: the GI50 in assay [1] was > 100 µM (inactive); in assay [2], > 100 µM (inactive); in [3] it was 49 µM (inactive); in assay [4], < 0.01 µM (active); in [5], > 100 µM (inactive); in assay [6], 32.8 µM (inactive). For the same compound, the GI50 in assay [7], in assay [8], in [9], in assay [10], in [11] and in assay [12] was > 100 µM (inactive) in each case. The results for the GI50 in assay [13], in [15] and in [17] were 72.8 µM (inactive), 63 µM (inactive) and > 100 µM (inactive), respectively.

On to `COc1ccc2c3c(c(C(=O)O)oc13)CCC2`, for which the GI50 in [1], in assay [3], in assay [4], in assay [5], in assay [6] and in assay [7] was > 100 µM (inactive) throughout. Moreover, the GI50 in assay [8], in [9], in assay [10], in assay [11], in assay [12] and in assay [13] was > 100 µM (inactive) in each case. The GI50 is > 100 µM (inactive) in assay [14], > 100 µM (inactive) in [15], > 100 µM (inactive) in [16] and 40.7 µM (inactive) in [17].

Regarding `CCCS(=O)(=O)/C(=C(\c1ccc(Br)cc1)S(=O)(=O)CCC)c1ccc(Br)cc1`, the GI50 in assay [1], in assay [2], in assay [3], in assay [4], in assay [5] and in [6] was > 10 µM (inactive) in each case. Besides, the GI50 in assay [7], in assay [8], in assay [9], in [10], in assay [11] and in assay [12] was > 10 µM (inactive) throughout. Also, the GI50 in [13], in assay [14], in [15], in [16] and in [17] was > 10 µM (inactive) throughout.

Regarding `O=C(CC(=O)C(=O)CC(=O)OCc1ccccc1)OCc1ccccc1`, the GI50 in assay [1] is > 100 µM (inactive); in [2] it was > 100 µM (inactive); in [3], 49.2 µM (inactive); in assay [4], > 100 µM (inactive); in assay [5] it was > 100 µM (inactive); in [6], 64.3 µM (inactive). The GI50 in assay [7] is > 100 µM (inactive); in assay [10], > 100 µM (inactive); in assay [11], 75 µM (inactive); in assay [13], 66.1 µM (inactive); in [14], 43.4 µM (inactive); in [15], 70.8 µM (inactive). Further, the GI50 is 88.9 µM (inactive) in [16] and 27.3 µM (inactive) in [17].

Consider `CCOC(=O)C1=C(C)N(Cc2ccccc2)C(C)=C(C(=O)OCC)C1c1ccccc1O`, for which the GI50 in [1] is 44.6 µM (inactive); in assay [2] it was 33.7 µM (inactive); in assay [3], 27 µM (inactive); in [4], 24.7 µM (inactive); in assay [5] it was 44.8 µM (inactive); in assay [6], 11.3 µM (inactive). Moreover, the GI50 in assay [7] was 26 µM (inactive); in assay [8] it was 42.3 µM (inactive); in [9], 25.2 µM (inactive); in assay [10] it was > 100 µM (inactive); in [11], 18.7 µM (inactive); in assay [12] it was 33.1 µM (inactive). Also, the GI50 in [13] is 16.1 µM (inactive); in assay [14], 43.2 µM (inactive); in assay [15], 15.9 µM (inactive); in assay [16] it was 39.9 µM (inactive); in assay [17] it was 32.1 µM (inactive).

Regarding `O=C(Nc1nc2ncn(CC(COc3ccccc3)OC(=O)c3ccccc3)c2c(=O)[nH]1)c1ccccc1` (stereo not given), the GI50 in [1], in [2], in assay [4], in assay [6], in assay [7] and in assay [9] was > 100 µM (inactive) each time. Further, the GI50 in [10] was > 100 µM (inactive); in assay [11], > 100 µM (inactive); in [12] it was 48 µM (inactive); in assay [13], > 100 µM (inactive); in assay [14] it was > 100 µM (inactive); in assay [15], 58.5 µM (inactive). Also, the GI50 in assay [16] and in assay [17] was > 100 µM (inactive) in each case.

Consider `CC(Cl)(/C=C/Cl)C(Cl)/C=C/C(Cl)(CCl)CBr` (stereo not given), for which the GI50 was 2.9 µM (inactive) in assay [1]; 13.5 µM (inactive) in assay [2]; 0.305 µM (active) in assay [3]; 31.8 µM (inactive) in assay [4]; 14.6 µM (inactive) in assay [5]; 0.373 µM (active) in assay [6]. The GI50 is 3.37 µM (inactive) in [7]; 3.15 µM (inactive) in [8]; 12.5 µM (inactive) in assay [9]; 16 µM (inactive) in assay [10]; 1.45 µM (inactive) in [11]; 6.53 µM (inactive) in assay [12]. Besides, the GI50 was 7.52 µM (inactive) in [13]; 14.1 µM (inactive) in assay [14]; 0.191 µM (active) in assay [15]; 2.15 µM (inactive) in assay [16]; 14.5 µM (inactive) in [17].
